According to US6372297B1, “Wood preservative oxathiazines” (Uniroyal Chemical Company, Inc., priority 1993, dated 2002):

Tests used:
[1] = test system: blue-stain fungi and molds; assay: Activity against blue-stain fungi and molds on a stick test on vermiculite (paint film); parameters: key to Surface score of wooden sticks treated with paint formulation, C. cladosporioides / Surface score of wooden sticks treated with paint formulation, P. purpurogenum / Surface score of wooden sticks treated with paint formulation, P. violacea / Surface score of wooden sticks treated with paint formulation, R rubra (y) / Surface score of wooden sticks treated with paint formulation, S. chartarum / Surface score of wooden sticks treated with paint formulation, A. versicolor / Surface score of wooden sticks treated with paint formulation, A. pullulans: 0: No growth; Trace of growth of up to 1% coverage of the test inoculated area; 2: Growth covering between 1 and 10% of the inoculated test area; Growth covering between 10 and 30% of the inoculated test area; 4: Growth covering between 30 and 70% of the inoculated test area; 5: Growth covering more than 70t of the inoculated test area; details: 12 weeks on vermiculite; for Surface score of wooden sticks treated with paint formulation, R rubra (y): R rubra (yeast)
Summary of the method: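 Painted, γ-sterilised beech sticks dipped in spore suspensions of each fungus, then held on moist vermiculite for 12 weeks. Surface fungal growth scored visually on a 0 (none) to 5 (over 70% of inoculated area) scale.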

[2] = test system: molds and blue-stain fungi; assay: In vitro activity against molds and blue-stain fungi, poison plate assay (MIC); assay type: cell-based; details: malt extract agar, complete inhibition
Summary of the method: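 Poison plate format: compound diluted in sterile water and mixed into malt extract agar, then plates inoculated with each fungus. Growth inhibition scored at each concentration to give the MIC.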

[3] = test system: mixed spore suspension of blue-stain fungus and molds; assay: Activity against blue-stain fungi and molds in a mold cabinet test (BS3900: Part G6); parameters: key: 0: No growth; Trace of growth of up to 1% coverage of the test inoculated area; 2: Growth covering between 1 and 10% of the inoculated test area; Growth covering between 10 and 30% of the inoculated test area; 4: Growth covering between 30 and 70% of the inoculated test area; 5: Growth covering more than 70t of the inoculated test area
Summary of the method: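 Painted Scots pine sticks, sterilized by irradiation, were treated with compound solutions, dipped in mixed spore suspension and held in a mold chamber for 12 weeks. Surface growth scored 0 (none) to 5 (>70% of inoculated area covered).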

Aspergillus niger = assay: Control of molds and blue stain fungi in stick test (beech sticks); details: minimum concentration producing a score less than or equal to 1; dosages 250-5000 ppm
Experimental: (§1) The compounds shown in Table 1 were dissolved in 50% ethanol and a dilution series was made using the same solvent. In 25 ml of each dilution, one oven-dried beech stick (73×18×2 mm) was drenched until saturated.
(§2) Test dosages were 50, 100, 250, 500, and 1000 ppm for blue stain fungi which were Aureobasidium pullulans and Sclerophoma pithyophila. Test dosages for the molds used (Trichoderma viride, Aspergillus niger) were 250, 500, 1000, 2500, and 5000 ppm.
(§3) After three hours the test solution was poured off and each stick was allowed to dry in a sterile laminar air flow. In each Petri dish one stick was placed on malt agar previously seeded with inoculum. Two drops of fungal or spore suspension were pipetted on the upper surface of the stick. The Petri dishes were then incubated at 22° C. and 90% relative humidity. The treated sticks were evaluated after sufficient growth of the fungus on the untreated control sticks. The following score system was used to rate the effectiveness of the compounds:
(§4) 0=stick free of fungal growth
(§5) 1=traces of fungal growth on stick
(§6) 2=slight fungal growth (5 to 25% of the surface covered)
(§7) 3=moderate fungal growth (25 to 50% of the surface covered)
(§8) 4=vigorous fungal growth (greater than 50% of the surface covered).
(§9) For purposes of comparison of these compounds, these values were converted to threshold ranges. The threshold value in this system is defined as the minimum concentration of a particular compound which produces a score less than or equal to 1.

Aureobasidium pullulans = assay: as above; details: minimum concentration producing a score less than or equal to 1; dosages 50-1000 ppm
Experimental: as §1, §2, §3, §4, §5, §6, §7, §8, §9

Sclerophoma pithyophila = assay: as above; details: minimum concentration producing a score less than or equal to 1; dosages 50-1000 ppm
Experimental: as §1, §2, §3, §4, §5, §6, §7, §8, §9

Trichoderma viride = assay: as above; details: minimum concentration producing a score less than or equal to 1; dosages 250-5000 ppm
Experimental: as §1, §2, §3, §4, §5, §6, §7, §8, §9

Question: Which results are given for `[O-][S+]1CCON=C1c1cccs1` (stereo not drawn) [Compound 8]?
Answer: Surface score of wooden sticks treated with paint formulation, A. pullulans ([1]; 0.15% a.i. in paint): 0; Surface score of wooden sticks treated with paint formulation, A. pullulans ([1]; 0.3% a.i. in paint): 0; Surface score of wooden sticks treated with paint formulation, A. versicolor ([1]; 0.15% a.i. in paint): 0; Surface score of wooden sticks treated with paint formulation, A. versicolor ([1]; 0.3% a.i. in paint): 0; Surface score of wooden sticks treated with paint formulation, C. cladosporioides ([1]; 0.15% a.i. in paint): 0; Surface score of wooden sticks treated with paint formulation, C. cladosporioides ([1]; 0.3% a.i. in paint): 0; Surface score of wooden sticks treated with paint formulation, P. purpurogenum ([1]; 0.15% a.i. in paint): 0; Surface score of wooden sticks treated with paint formulation, P. purpurogenum ([1]; 0.3% a.i. in paint): 0; Surface score of wooden sticks treated with paint formulation, P. violacea ([1]; 0.15% a.i. in paint): 4 (Growth covering between 30 and 70% of the inoculated test area); Surface score of wooden sticks treated with paint formulation, P. violacea ([1]; 0.3% a.i. in paint): 0; Surface score of wooden sticks treated with paint formulation, R rubra (y) ([1]; 0.15% a.i. in paint): 1 (Trace of growth of up to 1% coverage of the test inoculated area); Surface score of wooden sticks treated with paint formulation, R rubra (y) ([1]; 0.3% a.i. in paint): 1 (Trace of growth of up to 1% coverage of the test inoculated area); Surface score of wooden sticks treated with paint formulation, S. chartarum ([1]; 0.15% a.i. in paint): 0; Surface score of wooden sticks treated with paint formulation, S. chartarum ([1]; 0.3% a.i. in paint): 0; Surface score of wooden sticks treated with paint formulation, U. atrum ([1]; 0.15% a.i. in paint): 1 (Trace of growth of up to 1% coverage of the test inoculated area); Surface score of wooden sticks treated with paint formulation, U. atrum ([1]; 0.3% a.i. in paint): 1 (Trace of growth of up to 1% coverage of the test inoculated area); MIC (ppm) against A. amstelodami ([2]; A. amstelodami): 10 ppm; MIC (ppm) against A. niger ([2]; A. niger): 25 ppm; MIC (ppm) against A. pullulans ([2]; A. pullulans): >25 ppm; MIC (ppm) against A. versicolor ([2]; A. versicolor): 10 ppm; MIC (ppm) against C. cladosporioides ([2]; C. cladosporioides): >25 ppm; MIC (ppm) against C. pilifera ([2]; C. pilifera): 5 ppm; MIC (ppm) against F. solani ([2]; F. solani): 25 ppm; MIC (ppm) against G. candidum ([2]; G. candidum): >25 ppm; MIC (ppm) against P. purpurogenum ([2]; P. purpurogenum): >25 ppm; MIC (ppm) against P. variotii ([2]; P. variotii): >25 ppm; MIC (ppm) against P. violacea ([2]; P. violacea): 25 ppm; MIC (ppm) against S. atra ([2]; S. atra): 10 ppm; MIC (ppm) against S. entoxylina ([2]; S. entoxylina): 10 ppm; MIC (ppm) against T. viride ([2]; T. viride): >25 ppm; MIC (ppm) against U. atrum ([2]; U. atrum): 25 ppm; Surface score in a paint formulation in a mold cabinet test, 6 weeks ([3]; 0.15% in water-based paint): 0; Surface score in a paint formulation in a mold cabinet test, 12 weeks ([3]; 0.15% in water-based paint): 2.0; Surface score in a paint formulation in a mold cabinet test, 6 weeks ([3]; 0.3% in water-based paint): 0; Surface score in a paint formulation in a mold cabinet test, 12 weeks ([3]; 0.3% in water-based paint): 1.5; Threshold value in stick test, A[…] (Aspergillus niger): 250-500 ppm; Threshold value in stick test, AUREOBASIDIUM PULLULANS (Aureobasidium pullulans): 250-500 ppm; Threshold value in stick test, SCLEROPHOMA PYTHIOPHILA (Sclerophoma pithyophila): 50-100 ppm; Threshold value in stick test, TRICHODERMA VIRIDE (Trichoderma viride): 500-1000 ppm
